Data as given in patent publication US8449898B2 (priority 2007, dated 2013).
Read-outs that look alike come from different tables or passages of the source.

What was measured:
[1] = tested on: Phytophthora infestans (the causal agent of tomato late blight); assay: whole plant or invertebrate; type: in vivo; settings: for pest or weed control at 0.04 ppm: read-out: TLB Obsd, component (b) alone, 0.04 ppm; for TLB Obsd / TLB Obsd (observed effect, tomato late blight): component (b) alone; for TLB Obsd (disease control rating): Table B
[2] = tested on: Pseudoperonospora cubensis (the causal agent of cucumber downy mildew); assay: Test B: cucumber downy mildew, preventive spray on cucumber seedlings; type: in vivo; settings: for CDM Obsd (disease control rating): Table B
[3] = Phytophthora infestans, read-out: TLB Obsd, component (b) alone, 2 ppm
[4] = Phytophthora infestans, read-out: TLB Obsd, component (b) alone, 10 ppm
[5] = Phytophthora infestans, read-out: TLB Obsd, component (b) alone, 40 ppm
[6] = Phytophthora infestans, read-out: TLB Obsd, component (b) alone, 200 ppm
[7] = Pseudoperonospora cubensis, component (b) alone, read-out: CDM Obsd
[8] = Pseudoperonospora cubensis, component (b) alone, 2 ppm, read-out: CDM Obsd
[9] = Pseudoperonospora cubensis, component (b) alone, 10 ppm, read-out: CDM Obsd
[10] = Pseudoperonospora cubensis, component (b) alone, 40 ppm, read-out: CDM Obsd
[11] = Pseudoperonospora cubensis, component (b) alone, 200 ppm, read-out: CDM Obsd
[12] = Pseudoperonospora cubensis, Compound 214 alone, read-out: CDM Obsd
[13] = Pseudoperonospora cubensis, Compound 214 alone, read-out: CDM Obsd (observed effect, cucumber downy mildew)
[14] = component (b) alone 0.08 ppm (Compound 1 0 ppm)
[15] = component (b) alone 0.4 ppm (Compound 1 0 ppm)
[16] = component (b) alone 2 ppm (Compound 1 0 ppm)
[17] = component (b) alone 10 ppm (Compound 1 0 ppm)
[18] = Pseudoperonospora cubensis, component (b) alone 0.4 ppm (Compound 1 0 ppm), read-out: CDM Obsd
[19] = Pseudoperonospora cubensis, component (b) alone 2 ppm (Compound 1 0 ppm), read-out: CDM Obsd
[20] = Pseudoperonospora cubensis, component (b) alone 10 ppm (Compound 1 0 ppm), read-out: CDM Obsd

O=C(Nc1ccccc1-c1ccc(Cl)cc1)c1cccnc1Cl [boscalid]
pest or weed control at 0.4 ppm ([1]; Phytophthora infestans, read-out: TLB Obsd (disease control rating), Table A, component (b) alone 0.4 ppm): 9%
pest or weed control at 2 ppm ([1]; Phytophthora infestans, read-out: TLB Obsd (disease control rating), Table A, component (b) alone 2 ppm): 17%
pest or weed control at 10 ppm ([1]; Phytophthora infestans, read-out: TLB Obsd (disease control rating), Table A, component (b) alone 10 ppm): 17%
pest or weed control at 40 ppm ([1]; Phytophthora infestans, read-out: TLB Obsd (disease control rating), Table A, component (b) alone 40 ppm): 17%
pest or weed control at 200 ppm ([1]; Phytophthora infestans, read-out: TLB Obsd (disease control rating), Table A, component (b) alone 200 ppm): 9%
pest or weed control at 0.04 ppm ([1]; Phytophthora infestans): 25%
pest or weed control at 2 ppm [1, 3]: 0%
pest or weed control at 10 ppm [1, 4]: 0%
pest or weed control at 40 ppm [1, 5]: 17%
pest or weed control at 200 ppm [1, 6]: 32%
pest or weed control at 0.4 ppm ([2]; Pseudoperonospora cubensis, Table A, component (b) alone 0.4 ppm, read-out: CDM Obsd (disease control rating)): 47%
pest or weed control at 2 ppm ([2]; Pseudoperonospora cubensis, Table A, component (b) alone 2 ppm, read-out: CDM Obsd (disease control rating)): 47%
pest or weed control at 10 ppm ([2]; Pseudoperonospora cubensis, Table A, component (b) alone 10 ppm, read-out: CDM Obsd (disease control rating)): 47%
pest or weed control at 40 ppm ([2]; Pseudoperonospora cubensis, Table A, component (b) alone 40 ppm, read-out: CDM Obsd (disease control rating)): 47%
pest or weed control at 200 ppm ([2]; Pseudoperonospora cubensis, Table A, component (b) alone 200 ppm, read-out: CDM Obsd (disease control rating)): 47%
pest or weed control at 0.4 ppm ([2]; Pseudoperonospora cubensis, Table G, component (b) alone at 0.4 ppm, read-out: CDM Obsd): 47%
pest or weed control at 2 ppm ([2]; Pseudoperonospora cubensis, Table G, component (b) alone at 2 ppm, read-out: CDM Obsd): 47%
pest or weed control at 10 ppm ([2]; Pseudoperonospora cubensis, Table G, component (b) alone at 10 ppm, read-out: CDM Obsd): 26%
pest or weed control at 40 ppm ([2]; Pseudoperonospora cubensis, Table G, component (b) alone at 40 ppm, read-out: CDM Obsd): 26%
pest or weed control at 200 ppm ([2]; Pseudoperonospora cubensis, Table G, component (b) alone at 200 ppm, read-out: CDM Obsd): 26%
pest or weed control at 0.04 ppm [2, 7]: 68%
pest or weed control at 2 ppm [2, 8]: 0%
pest or weed control at 10 ppm [2, 9]: 0%
pest or weed control at 40 ppm [2, 10]: 0%
pest or weed control at 200 ppm [2, 11]: 0%

Cc1cc(C(F)(F)F)nn1CC(=O)N1CCC(c2nc(C3=NO[C@@H](c4c(F)cccc4F)C3)cs2)CC1 [Compound 214, 1-[4-[4-[(5R)-5-(2,6-difluorophenyl)-4,5-dihydro-3-isoxazolyl]-2-thiazolyl]-1-piperidinyl]-2-[5-methyl-3-(trifluoromethyl)-1H-pyrazol-1-yl]ethanone]
pest or weed control at 0.001 ppm ([1]; Phytophthora infestans, read-out: TLB Obsd (observed effect, tomato late blight), Compound 214 alone, 0.001 ppm): 44%
pest or weed control at 0.01 ppm ([1]; Phytophthora infestans, read-out: TLB Obsd (observed effect, tomato late blight), Compound 214 alone, 0.01 ppm): 98%
pest or weed control at 0.1 ppm ([1]; Phytophthora infestans, read-out: TLB Obsd (observed effect, tomato late blight), Compound 214 alone, 0.1 ppm): 100%
pest or weed control at 0.001 ppm ([1]; Phytophthora infestans, read-out: TLB Obsd, Compound 214 alone, 0.001 ppm): 22%
pest or weed control at 0.01 ppm ([1]; Phytophthora infestans, read-out: TLB Obsd, Compound 214 alone, 0.01 ppm): 98%
pest or weed control at 0.1 ppm ([1]; Phytophthora infestans, read-out: TLB Obsd, Compound 214 alone, 0.1 ppm): 100%
pest or weed control at 0.001 ppm ([2]; Pseudoperonospora cubensis, Compound 214 alone, 0.001 ppm, read-out: CDM Obsd (observed effect, cucumber downy mildew)): 16%
pest or weed control at 0.01 ppm [2, 12]: 88%
pest or weed control at 0.01 ppm [2, 13]: 83%
pest or weed control at 0.1 ppm [2, 12]: 100%
pest or weed control at 0.1 ppm [2, 13]: 100%

CCNc1nc(CC)c(C(=O)NC(C#N)c2cccs2)s1 (stereo not drawn) [ethaboxam]
TLB Obsd ([1]; 0.016 ppm): 22%
TLB Obsd ([1]; 0.08 ppm): 15%
TLB Obsd ([1]; 0.4 ppm): 95%
TLB Obsd ([1]; 2 ppm): 87%
TLB Obsd ([1]; 10 ppm): 100%
CDM Obsd ([2]; component (b) alone 0.016 ppm (Compound 1 0 ppm)): 47%
CDM Obsd [2, 14]: 47%
CDM Obsd [2, 15]: 47%
CDM Obsd [2, 16]: 82%
CDM Obsd [2, 17]: 100%
CDM Obsd ([2]; component (b) alone, 0.016 ppm): 0%
CDM Obsd ([2]; component (b) alone, 0.08 ppm): 0%
CDM Obsd ([2]; component (b) alone, 0.4 ppm): 41%
CDM Obsd ([2]; component (b) alone, 2 ppm): 100%
CDM Obsd ([2]; component (b) alone, 10 ppm): 100%

CC(C)[C@H](NC(=O)O)C(=O)N[C@H](C)c1nc2ccc(F)cc2s1 [benthiavalicarb]
TLB Obsd (observed effect, tomato late blight) ([1]; 0.08 ppm): 21
TLB Obsd (observed effect, tomato late blight) ([1]; 0.4 ppm): 82
TLB Obsd (observed effect, tomato late blight) ([1]; 2 ppm): 100
TLB Obsd (observed effect, tomato late blight) ([1]; 10 ppm): 100
TLB Obsd (observed effect, tomato late blight) ([1]; 40 ppm): 100
CDM Obsd (observed effect, cucumber downy mildew) ([2]; component (b) alone, 0.08 ppm): 0
CDM Obsd (observed effect, cucumber downy mildew) ([2]; component (b) alone, 0.4 ppm): 75
CDM Obsd (observed effect, cucumber downy mildew) ([2]; component (b) alone, 2 ppm): 100
CDM Obsd (observed effect, cucumber downy mildew) ([2]; component (b) alone, 10 ppm): 100
CDM Obsd (observed effect, cucumber downy mildew) ([2]; component (b) alone, 40 ppm): 100

C[C@@]1(c2ccc(Oc3ccccc3)cc2)OC(=O)N(Nc2ccccc2)C1=O (racemic) [famoxadone]
pest or weed control at 0.4 ppm ([1]; Phytophthora infestans, read-out: TLB Obsd (disease control rating), Table C, component (b) alone 0.4 ppm): 17%
pest or weed control at 2 ppm ([1]; Phytophthora infestans, read-out: TLB Obsd (disease control rating), Table C, component (b) alone 2 ppm): 26%
pest or weed control at 10 ppm ([1]; Phytophthora infestans, read-out: TLB Obsd (disease control rating), Table C, component (b) alone 10 ppm): 67%
pest or weed control at 40 ppm ([1]; Phytophthora infestans, read-out: TLB Obsd (disease control rating), Table C, component (b) alone 40 ppm): 53%
pest or weed control at 200 ppm ([1]; Phytophthora infestans, read-out: TLB Obsd (disease control rating), Table C, component (b) alone 200 ppm): 66%
pest or weed control at 0.04 ppm ([1]; Phytophthora infestans): 100%
pest or weed control at 2 ppm [1, 3]: 32%
pest or weed control at 10 ppm [1, 4]: 93%
pest or weed control at 40 ppm [1, 5]: 98%
pest or weed control at 200 ppm [1, 6]: 100%
pest or weed control at 0.4 ppm ([2]; Pseudoperonospora cubensis, Table C, component (b) alone 0.4 ppm, read-out: CDM Obsd (disease control rating)): 47%
pest or weed control at 2 ppm ([2]; Pseudoperonospora cubensis, Table C, component (b) alone 2 ppm, read-out: CDM Obsd (disease control rating)): 63%
pest or weed control at 10 ppm ([2]; Pseudoperonospora cubensis, Table C, component (b) alone 10 ppm, read-out: CDM Obsd (disease control rating)): 95%
pest or weed control at 40 ppm ([2]; Pseudoperonospora cubensis, Table C, component (b) alone 40 ppm, read-out: CDM Obsd (disease control rating)): 100%
pest or weed control at 200 ppm ([2]; Pseudoperonospora cubensis, Table C, component (b) alone 200 ppm, read-out: CDM Obsd (disease control rating)): 100%
pest or weed control at 0.4 µg/mL [2, 18]: 47%
pest or weed control at 2 µg/mL [2, 19]: 58%
pest or weed control at 10 µg/mL [2, 20]: 87%
pest or weed control at 40 µg/mL ([2]; Pseudoperonospora cubensis, component (b) alone 40 ppm (Compound 1 0 ppm), read-out: CDM Obsd): 100%
pest or weed control at 200 µg/mL ([2]; Pseudoperonospora cubensis, component (b) alone 200 ppm (Compound 1 0 ppm), read-out: CDM Obsd): 100%
pest or weed control at 0.04 ppm [2, 7]: 100%
pest or weed control at 2 ppm [2, 8]: 21%
pest or weed control at 10 ppm [2, 9]: 72%
pest or weed control at 40 ppm [2, 10]: 100%
pest or weed control at 200 ppm [2, 11]: 100%

Cc1ccc(C(C)NC(=O)[C@@H](NC(=O)OC(C)C)C(C)C)cc1 (stereo partly drawn) [iprovalicarb]
TLB Obsd (disease control rating) ([1]; component (b) alone 0.08 ppm): 0%
TLB Obsd (disease control rating) ([1]; component (b) alone 0.4 ppm): 9%
TLB Obsd (disease control rating) ([1]; component (b) alone 2 ppm): 39%
TLB Obsd (disease control rating) ([1]; component (b) alone 10 ppm): 99%
TLB Obsd (disease control rating) ([1]; component (b) alone 40 ppm): 100%
TLB Obsd (observed effect, tomato late blight) ([1]; 0.08 ppm): 0
TLB Obsd (observed effect, tomato late blight) ([1]; 0.4 ppm): 21
TLB Obsd (observed effect, tomato late blight) ([1]; 2 ppm): 74
TLB Obsd (observed effect, tomato late blight) ([1]; 10 ppm): 98
TLB Obsd (observed effect, tomato late blight) ([1]; 40 ppm): 100
CDM Obsd (disease control rating) ([2]; component (b) alone 0.08 ppm): 47%
CDM Obsd (disease control rating) ([2]; component (b) alone 0.4 ppm): 57%
CDM Obsd (disease control rating) ([2]; component (b) alone 2 ppm): 77%
CDM Obsd (disease control rating) ([2]; component (b) alone 10 ppm): 100%
CDM Obsd (disease control rating) ([2]; component (b) alone 40 ppm): 100%
CDM Obsd [2, 14]: 26%
CDM Obsd [2, 15]: 26%
CDM Obsd [2, 16]: 26%
CDM Obsd [2, 17]: 88%
CDM Obsd ([2]; component (b) alone 40 ppm (Compound 1 0 ppm)): 100%
CDM Obsd (observed effect, cucumber downy mildew) ([2]; component (b) alone, 0.08 ppm): 0
CDM Obsd (observed effect, cucumber downy mildew) ([2]; component (b) alone, 0.4 ppm): 0
CDM Obsd (observed effect, cucumber downy mildew) ([2]; component (b) alone, 2 ppm): 0
CDM Obsd (observed effect, cucumber downy mildew) ([2]; component (b) alone, 10 ppm): 99
CDM Obsd (observed effect, cucumber downy mildew) ([2]; component (b) alone, 40 ppm): 100

Cc1ccc(-c2c(Cl)nc(C#N)n2S(=O)(=O)N(C)C)cc1 [cyazofamid]
pest or weed control at 0.016 ppm ([1]; Phytophthora infestans, read-out: TLB Obsd, component (b) alone, 0.016 ppm): 25%
pest or weed control at 0.08 ppm ([1]; Phytophthora infestans, read-out: TLB Obsd, component (b) alone, 0.08 ppm): 52%
pest or weed control at 0.4 ppm ([1]; Phytophthora infestans, read-out: TLB Obsd, component (b) alone, 0.4 ppm): 58%
pest or weed control at 2 ppm [1, 3]: 100%
pest or weed control at 10 ppm [1, 4]: 100%
pest or weed control at 0.016 µg/mL ([2]; Pseudoperonospora cubensis, component (b) alone 0.016 ppm (Compound 1 0 ppm), read-out: CDM Obsd): 47%
pest or weed control at 0.08 µg/mL ([2]; Pseudoperonospora cubensis, component (b) alone 0.08 ppm (Compound 1 0 ppm), read-out: CDM Obsd): 100%
pest or weed control at 0.4 µg/mL [2, 18]: 100%
pest or weed control at 2 µg/mL [2, 19]: 100%
pest or weed control at 10 µg/mL [2, 20]: 100%
pest or weed control at 0.016 ppm ([2]; Pseudoperonospora cubensis, component (b) alone, 0.016 ppm, read-out: CDM Obsd): 43%
pest or weed control at 0.08 ppm ([2]; Pseudoperonospora cubensis, component (b) alone, 0.08 ppm, read-out: CDM Obsd): 57%
pest or weed control at 0.4 ppm ([2]; Pseudoperonospora cubensis, component (b) alone, 0.4 ppm, read-out: CDM Obsd): 100%
pest or weed control at 2 ppm [2, 8]: 100%
pest or weed control at 10 ppm [2, 9]: 100%
